According to patent US9149450B2, “Ischemia/reperfusion protection compositions and methods of using” (priority 2007, dated 2015):

Assays:
[1] = system: hibernating ground squirrels; settings: in vivo, ip
[2] = system: rats subjected to 60% blood loss; assay: Rat hemorrhagic shock, 60% blood loss (Example 3); type: in vivo
Experimental: Rats infused with ketone bodies were subjected to 60% blood loss for at least 1 hour, followed by return of the shed blood. Endpoint measures of neuroprotection were quantitative analysis of neuronal survival and apoptosis in cortex, hippocampus and cerebellum as well as neurologic function exam scores. The objective was to determine the effectiveness of the D-form of beta-hydroxybutyrate (D-BHB) in conjunction with melatonin in protecting the brain from ischemia and providing protection from reperfusion injury after blood return.
The goal of the following experiments was to maintain 60% blood loss for at least three hours using a minimal amount of fluid in order to maintain viability. Sixty-percent blood loss was calculated by using the equation: Total blood volume=Animal body weight×0.06. A bolus volume of 1 ml ischemia/reperfusion protection composition per kilogram of animal body weight was given to animals after approximately 40% blood loss. Some animals only received a single 1 ml/kg bolus, while other animals received a slow infusion (100 μl/hr) to imitate an intravenous drip of solution after the bolus was given. […]
Once rats were fully anesthesized and stabilized for a 20 min period, blood loss was begun. […] Temperature was monitored with a rectal probe. […] Animal death was recorded when blood pressure, respiration, and precordial movement ceased (see FIG. 9 for a timeline). […]

transport into the heart during hibernation [1] | Compound | survival compared with 4 M NaCl ([2]; 60% blood loss, same osmolarity, ambient temperature drift) | survival compared with NaCl, bolus followed by infusion ([2]; bolus then 100 μl/hr infusion, p-value <0.016)
efficiently transported into the heart | [13CH3][C@@H](O)[13CH2]C(=O)O [^13C-D-BHB, [2,4-^13C]D-beta-hydroxybutyrate] |  | 
 | C[C@@H](O)CC(=O)O [D-BHB, D-beta-hydroxybutyrate] | survived longer | lived significantly longer
